These results are taken from US7335186B2 (priority 1998, dated 2008).

The conditions of this test: 30 mg per ml solutions.

Consider `CN1CC[C@]23c4c5ccc(O)c4O[C@H]2[C@@H](O)C=C[C@H]3[C@H]1C5.O=S(=O)(O)O` [Morphine sulphate], for which the “effectiveness of nasal solution” value is recorded as “effective”.
